The experiment has as its target T1, PAF receptor (human platelet plasma membrane) (Homo sapiens, UniProt P25105).
T1 construct: Platelet concentrates were obtained from a hospital blood bank; from tissue; host or cells: human platelets (hospital blood bank concentrates), lysed platelet membranes
The experiment can be described thus: Inhibition of ^3 H-PAF receptor binding to human platelet plasma membrane. The following applies: ^3 H-PAF 0.5 nM, 0° C., 1 hour. The procedure:
Compounds of general formula I inhibit PAF induced functions in both the cellular and tissue levels by changing the PAF binding to its specific receptor site. The ability of compounds of general formula I to inhibit platelet aggregation in human platelet-rich plasma, and to inhibit the binding of PAF to its specific receptor binding site on human platelet plasma membranes was measured in the assay described in the pharmacology example.
The inhibition of ^3 H-PAF binding to human platelet plasma membrane by compounds of general formula I was determined by isotopic labelling and filtration techniques. Platelet concentrates were obtained from a hospital blood bank. These platelet concentrates (500-2500 ml.) were centrifuged at 800 rpm for 10 minutes in a SORVALL RC3B centrifuge to remove the red blood cells present. (The word SORVALL is a trade mark.) The supernatant was subsequently centrifuged at 3,000 rpm in a SORVALL RC3B centrifuge to pellet the platelets present. The platelet rich pellets were resuspended in a minimum volume of buffer (150 Mm NaCl, 10 mM Tris, 2 mM EDTA, pH 7.5) and layered onto Ficoll-Paque gradients, 9 ml platelet concentrate to 2 ml Ficoll, and centrifuged at 1,900 rpm for 15 minutes in a SORVALL RT6000 centrifuge. This step removes the residual red blood cells and other nonspecific material such as lymphocytes from the preparation. The platelets which form a band between the plasma and the Ficoll were removed, resuspended in the above buffer and centrifuged at 3,000 rpm for 10 minutes in a SORVALL RT6000 centrifuge. The pelleted platelets were resuspended in buffer (10 mM Tris, 5 mM MgCl2, 2 mM EDTA, pH 7.0), snap-freezed in liquid N2 and allowed to thaw slowly at room temperature in order to lyse the platelets. The latter step was repeated at least 3 times to ensure proper lysis. The lysed platelets were centrifuged at 3,000 rpm for 10 minutes in a SORVALL RT6000 centrifuge and resuspended in buffer. The latter step was reseated twice in order to remove any cytoplasmic proteins which may hydrolyse the platelet activating factor (PAF) receptor. The prepared platelet membranes may be stored at -70° C. After thawing the prepared membranes were centrifuged in a SORVALL RT6000 at 3,000 rpm for 10 minutes and resuspended in assay buffer.
The assay was conducted by preparing a series of a Tris-buffered solutions of the selected antagonist of predetermined concentrations. Each of these solutions contained ^3 H-PAF (0.5 nM; 1-O-(^3 H]octadecyl-2-acetyl-sn-glycero-3-phosphoryl choline with a specific activity of 132 Ci/mmol), […], a known amount of the test antagonist, and a sufficient amount of Tris-buffer solution (10 mM Tris, 5 mM MgCl2, pH 7.0, 0.25% BSA) to make the final volume 1 ml. Incubation was initiated by the addition of 100 μg of the isolated membrane fraction to each of the above solutions at 0° C. Two control samples, one which ([…]) contained all the ingredients described above except the antagonist and the other (C2) contains C1 plus a 1000-fold excess of unlabelled PAF, were also prepared and incubated simultaneously with the test samples. After 1 hour incubation, each solution was filtered rapidly under vacuo through a WHATMAN GF/C glass fiber falter in order to separate unbound PAF from bound PAF. (The word WHATMAN is a trade mark.) The residue in each case was rapidly washed 4 times with 5 ml cold (4° C.) Tris-buffer solution. Each washed residue was dried under vacuum on a sampling manifold and placed into vials containing 20 ml of OPTIPHASE MP scintillation fluid and the radioactivity counted in a liquid scintillation counter. (The word OPTIPHASE is a trade mark.) Defining the counts for total binding with antagonist from a test sample as "TBA"; the counts for total binding from the control sample C1 as "TB"; and the counts for nonspecific binding from the control sample C2 as "NSB", the percent inhibition of each test antagonist can be determined by the following equation. […]
T1 sequence (P25105 whole entry): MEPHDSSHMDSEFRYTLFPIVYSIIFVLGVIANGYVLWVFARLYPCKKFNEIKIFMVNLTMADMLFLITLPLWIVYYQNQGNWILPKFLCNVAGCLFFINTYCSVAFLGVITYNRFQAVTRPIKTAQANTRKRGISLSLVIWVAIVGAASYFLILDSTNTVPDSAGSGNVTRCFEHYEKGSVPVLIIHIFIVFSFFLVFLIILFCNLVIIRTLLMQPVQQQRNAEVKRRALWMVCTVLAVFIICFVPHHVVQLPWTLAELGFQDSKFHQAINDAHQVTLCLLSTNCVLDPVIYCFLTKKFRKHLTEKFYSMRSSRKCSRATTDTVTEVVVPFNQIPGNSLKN
What is called IC50 is the point on the concentration scale where inhibition reaches its midpoint. Low values mean inhibition by little substance, high ones a need for much substance. `Cc1nc2ccccc2n1Cc1ccc(S(=O)(=O)N2CCCCC2)cc1` [Example 50, Piperidinyl 4-(1H-2-methylbenzimidazylmethyl)benzenesulphonamide] showed an IC50 of 2000 nM. For `Cc1nc2ccccc2n1Cc1ccc(N(C)P(=O)(c2ccccc2)c2ccccc2)cc1` [Example 59], the IC50 is 500 nM. The compound `Cc1nc2ccccc2n1Cc1ccc(S(=O)(=O)N2CCC[C@H]3CCCC[C@@H]32)cc1` (relative stereo) [Example 92, trans-Decahydroquinolinyl 4-(1H-2-methylbenzimidazylmethyl) benzenesulphonamide] registered an IC50 of 700 nM. The figure for `Cc1nc2cc([N+](=O)[O-])ccc2n1Cc1ccc(S(=O)(=O)N(C)C2CCCCC2)cc1` [Example 44, N-Cyclohexyl-N-methyl 4-(1H-2-methyl-5-nitrobenzimidazylmethyl) benzenesulphonamide] is 5000 nM; for `Cc1nc2ccccc2n1Cc1ccc(C(=O)N(C2CCCCC2)C2CCCCC2)cc1` [Example 22, N,N-Dicyclohexyl 4-(1H-2-methylbenzimidazylmethyl)benzamide] it is 650 nM; for `Cc1nc2ccccc2n1Cc1ccc(S(=O)(=O)NCc2ccccc2Cl)cc1` [Example 80, N-2-Chlorobenzyl 4-(1H-2-methylbenzimidazylmethyl) benzenesulphonamide] it is 900 nM. The figure for `CSc1nc2ccccc2n1Cc1ccc(C(=O)N(C)C2CCCCC2)cc1` [Example 26, N-Cyclohexyl-N-methyl 4-(1H-2-thiomethylbenzimidazylmethyl) benzamide] is 3000 nM; for `Cc1nc2ccccc2n1Cc1ccc(NC(=O)C2CCCCC2)cc1` [Example 58, N-4-(1H-2-Methylbenzimidazylmethyl)benzyl cyclohexylamide] it is 2000 nM.

The compound `Cc1nc2ccccc2n1Cc1ccc(S(=O)(=O)N(C)C2CCCCC2)cc1` [Example 41, N-Cyclohexyl-N-methyl 4-(1H-2-methylbenzimidazylmethyl) benzenesulphonamide] gave a concentration for half-maximal inhibition (IC50) of 300 nM.

`CCN(C(=O)c1ccc(Cn2c(C)nc3ccccc32)cc1)C1CCCCC1` [Example 21, N-Cyclohexyl-N-ethyl 4-(1H-2-methylbenzimidazylmethyl)benzamide] had an IC50 of 500 nM.

For the compound `CCN(C1CCCCC1)S(=O)(=O)c1ccc(Cn2c(C)nc3ccccc32)cc1` [Example 49, N-Cyclohexyl-N-ethyl 4-(1H-2-(2-methyl)benzimidazylmethyl) benzenesulphonamide], the half-inhibitory concentration (IC50) is 500 nM.

`CSC(c1ccc(C(=O)N(C)C2CCCCC2)cc1)n1cnc2ccccc21` (stereo not drawn) [Example 63, N-Cyclohexyl-N-methyl 4-(1H-benzimidazylthiomethylmethyl) benzamide] displayed an IC50 of 500 nM.

The values are drawn from US5314880A, “Benzimidazole derivatives” (British Bio-technology Limited, priority 1989, dated 1994).
